What was measured:
[1] = Cumulative elution from carbopol hydrogel; format: physicochemical
Experimental: Hydrogels were loaded with EDTA compounds and investigated for elution of the silver, zinc and EDTA. Carbopol ETD 2020 was obtained from Lubrizol Advanced Materials, Inc. USA. 1.2 g carbopol power was dissolved in 42.36 g deionized water for 1 hour to fully hydrate. Then 8.4 ml of the EDTA complexes and 4.8 g glycerine were added into carbopol solution with vigorous stirring; finally, 3 g 50% triethanolamine was dropped into the suspension to obtain final products: carbopol hydrogel with EDTA complexes.
The silver, zinc and EDTA increased in saline day by day, which indicated the release of silver, zinc and EDTA can be controlled from the hydrogel.

[2] = Elution from loaded gauze; format: physicochemical
Experimental: The gauzes were weighed before soaking, after soaking and after drying for 24 hours. To assess the elution profile of the EDTA complexes from gauze, the loaded gauzes were immersed in water and saline (Table 6 and Table 7). […] After day 2, the eluting of silver, zinc and EDTA decreased more than 5 times compared to day 1.

cells = test: Direct cytotoxicity, Neutral Red Uptake assay

## O=C([O-])CN(CCN(CC(=O)[O-])CC(=O)[O-])CC(=O)[O-].[Ag+].[Ag+].[Zn+2] [EDTA compound 4, sample 1]
[1]; day 1
  Elution in saline (ppm) EDTA: 26.39 ± 2.06 ppm
  Elution in saline (ppm) Silver: 32.09 ± 3.02 ppm
  Elution in saline (ppm) Zinc: 22.12 ± 3.31 ppm
  Elution in water (ppm) EDTA: 31.12 ± 5.40 ppm
  Elution in water (ppm) Silver: 44.39 ± 5.98 ppm
  Elution in water (ppm) Zinc: 31.88 ± 3.53 ppm
[1]; day 2
  Elution in saline (ppm) EDTA: 27.18 ± 2.34 ppm
  Elution in saline (ppm) Silver: 37.09 ± 2.91 ppm
  Elution in saline (ppm) Zinc: 30.90 ± 5.81 ppm
  Elution in water (ppm) EDTA: 26.21 ± 4.20 ppm
  Elution in water (ppm) Silver: 47.13 ± 5.03 ppm
  Elution in water (ppm) Zinc: 36.09 ± 3.61 ppm
[1]; day 3
  Elution in saline (ppm) EDTA: 35.02 ± 0.72 ppm
  Elution in saline (ppm) Silver: 47.05 ± 2.79 ppm
  Elution in saline (ppm) Zinc: 36.73 ± 3.64 ppm
  Elution in water (ppm) EDTA: 37.28 ± 2.58 ppm
  Elution in water (ppm) Silver: 45.58 ± 4.54 ppm
  Elution in water (ppm) Zinc: 34.28 ± 4.55 ppm
[1]; day 4
  Elution in saline (ppm) EDTA: 37.71 ± 1.92 ppm
  Elution in saline (ppm) Silver: 51.24 ± 1.53 ppm
  Elution in saline (ppm) Zinc: 40.31 ± 1.84 ppm
  Elution in water (ppm) EDTA: 37.53 ± 3.27 ppm
  Elution in water (ppm) Silver: 46.88 ± 6.86 ppm
  Elution in water (ppm) Zinc: 33.78 ± 2.20 ppm
[1]; day 5
  Elution in saline (ppm) EDTA: 40.57 ± 1.41 ppm
  Elution in saline (ppm) Silver: 59.55 ± 1.21 ppm
  Elution in saline (ppm) Zinc: 43.22 ± 3.91 ppm
  Elution in water (ppm) EDTA: 35.11 ± 5.39 ppm
  Elution in water (ppm) Silver: 45.91 ± 7.04 ppm
  Elution in water (ppm) Zinc: 35.99 ± 1.16 ppm
[2]; day 1
  Elution in saline (ppm) EDTA: 24.65 ± 2.40 ppm
  Elution in saline (ppm) Silver: 49.91 ± 2.29 ppm
  Elution in saline (ppm) Zinc: 29.69 ± 2.40 ppm
  Elution in water (ppm) EDTA: 18.09 ± 3.19 ppm
  Elution in water (ppm) Silver: 35.89 ± 5.66 ppm
  Elution in water (ppm) Zinc: 21.99 ± 2.85 ppm
[2]; day 2
  Elution in saline (ppm) EDTA: 9.19 ± 3.42 ppm
  Elution in saline (ppm) Silver: 12.76 ± 4.44 ppm
  Elution in saline (ppm) Zinc: 9.14 ± 2.77 ppm
  Elution in water (ppm) EDTA: 12.54 ± 3.11 ppm
  Elution in water (ppm) Silver: 25.27 ± 5.63 ppm
  Elution in water (ppm) Zinc: 15.66 ± 2.73 ppm
[2]; day 3
  Elution in saline (ppm) EDTA: 1.83 ± 0.26 ppm
  Elution in saline (ppm) Silver: 3.43 ± 0.54 ppm
  Elution in saline (ppm) Zinc: 3.71 ± 0.27 ppm
  Elution in water (ppm) EDTA: 1.90 ± 0.79 ppm
  Elution in water (ppm) Silver: 4.93 ± 2.56 ppm
  Elution in water (ppm) Zinc: 4.42 ± 1.62 ppm
[2]; day 4
  Elution in saline (ppm) EDTA: 1.28 ± 0.84 ppm
  Elution in saline (ppm) Silver: 2.29 ± 1.73 ppm
  Elution in saline (ppm) Zinc: 3.42 ± 0.93 ppm
  Elution in water (ppm) EDTA: 1.27 ± 0.84 ppm
  Elution in water (ppm) Silver: 1.75 ± 0.76 ppm
  Elution in water (ppm) Zinc: 3.26 ± 0.35 ppm
[2]; day 5
  Elution in saline (ppm) EDTA: 0.45 ± 0.15 ppm
  Elution in saline (ppm) Silver: 2.52 ± 2.26 ppm
  Elution in saline (ppm) Zinc: 2.68 ± 2.00 ppm
  Elution in water (ppm) EDTA: 0.87 ± 0.36 ppm
  Elution in water (ppm) Silver: 0.85 ± 0.34 ppm
  Elution in water (ppm) Zinc: 2.06 ± 1.21 ppm

## CCCCCCCCCCCCOS(=O)(=O)[O-].[Na+] [SDS, sodium dodecyl sulphate, reference compound]
cells; 0.05 mg/ml
  Interpretation: Cytotoxic (if the percentage viability is less than 70% of the untreated control, then the substance is considered cytotoxic)
  Percentage of Control/Percentage Viability (%): 6.57 ± 0%
cells; 0.1 mg/ml
  Interpretation: Cytotoxic (if the percentage viability is less than 70% of the untreated control, then the substance is considered cytotoxic)
  Percentage of Control/Percentage Viability (%): 6.57 ± 0%
cells; 0.15 mg/ml
  Interpretation: Cytotoxic (if the percentage viability is less than 70% of the untreated control, then the substance is considered cytotoxic)
  Percentage of Control/Percentage Viability (%): 6.57 ± 0%
cells; 0.2 mg/ml
  Interpretation: Cytotoxic (if the percentage viability is less than 70% of the untreated control, then the substance is considered cytotoxic)
  Percentage of Control/Percentage Viability (%): 6.57 ± 0%
